Measurements: ChEMBL document CHEMBL5584201, “Amphiphilic tribasic galactosamines potentiate rifampicin in Gram-negative bacteria at low Mg++/Ca++concentrations” (Bioorg Med Chem Lett, 2024)
Calls of active or inactive are those of the source. The calls are words filed in the database; no cut-off is given here.

Experiments:
Escherichia coli [1] = assay: Potentiation of rifampicin-induced antibacterial activity against Escherichia coli […] assessed as fold change in rifampicin MIC at 2 to 8 microg/ml in high concentration of Ca++ and Mg++ containing media by Mueller-Hinton broth based assay; format: functional; conditions: dose 2-8 µg/ml
Escherichia coli [2] = assay: Antibacterial activity against Escherichia coli ATCC 25922 in high concentration of Ca++ and Mg++ containing media by Mueller-Hinton broth based assay; format: functional
Escherichia coli [3] = assay: Potentiation of rifampicin-induced antibacterial activity against Escherichia coli clinical isolate 107115 at 1/4 MIC in low salt containing media by Mueller-Hinton broth based assay; format: functional, organism-based
Acinetobacter baumannii [4] = assay: Potentiation of rifampicin-induced antibacterial activity against multidrug resistant Acinetobacter baumannii clinical isolate 92247 at 1/4 MIC in low salt containing media by Mueller-Hinton broth based assay; format: functional, organism-based
Escherichia coli [5] = assay: Potentiation of rifampicin-induced antibacterial activity against Escherichia coli ATCC 25922 assessed as rifampicin MIC at 2 to 8 microg/ml in high concentration of Ca++ and Mg++ containing media by Mueller-Hinton broth based assay; format: functional; conditions: dose 2-8 µg/ml
[6] = Cytotoxicity against human HepG2 cells assessed as cell viability at 9 uM relative to control; format: toxicity, cell-based; conditions: read-out: Activity
Acinetobacter baumannii [7] = assay: Potentiation of rifampicin-induced antibacterial activity against Acinetobacter baumannii ATCC 17978 assessed as rifampicin MIC in low salt containing media by Mueller-Hinton broth based assay; format: functional
Acinetobacter baumannii [8] = assay: Potentiation of rifampicin-induced antibacterial activity against multidrug resistant Acinetobacter baumannii clinical isolate 110193 at 1/4 MIC in low salt containing media by Mueller-Hinton broth based assay; format: functional, organism-based
Acinetobacter baumannii [9] = assay: Potentiation of rifampicin-induced antibacterial activity against Acinetobacter baumannii 92247 assessed as rifampicin MIC at 2 to 8 microg/ml in high concentration of Ca++ and Mg++ containing media by Mueller-Hinton broth based assay; format: functional; conditions: dose 2-8 µg/ml
Escherichia coli [10] = assay: Potentiation of rifampicin-induced antibacterial activity against Escherichia coli ATCC 25922 assessed as fold change in rifampicin MIC at 16 microg/ml in high concentration of Ca++ and Mg++ containing media by Mueller-Hinton broth based assay; format: functional; conditions: dose 16 µg/ml
Escherichia coli [11] = assay: Antibacterial activity against Escherichia coli ATCC 25922 in low salt containing media by Mueller-Hinton broth based assay; format: functional
Acinetobacter baumannii [12] = assay: Potentiation of rifampicin-induced antibacterial activity against Acinetobacter baumannii ATCC 17978 assessed as fold change in rifampicin MIC in low salt containing media by Mueller-Hinton broth based assay; format: functional
Escherichia coli [13] = assay: Potentiation of rifampicin-induced antibacterial activity against Escherichia coli ATCC 25922 assessed as fold change in rifampicin MIC in low salt containing media by Mueller-Hinton broth based assay; format: functional
Pseudomonas aeruginosa [14] = assay: Potentiation of rifampicin-induced antibacterial activity against Pseudomonas aeruginosa PAO1 assessed as rifampicin MIC in low salt containing media by Mueller-Hinton broth based assay; format: functional
Escherichia coli [15] = assay: Potentiation of rifampicin-induced antibacterial activity against Escherichia coli ATCC 25922 assessed as rifampicin MIC in low salt containing media by Mueller-Hinton broth based assay; format: functional
Escherichia coli [16] = assay: Antibacterial activity against Escherichia coli […] in high concentration of Ca++ and Mg++ containing media by Mueller-Hinton broth based assay; format: functional
Acinetobacter baumannii [17] = assay: Potentiation of rifampicin-induced antibacterial activity against multidrug resistant Acinetobacter baumannii AB031 at 1/4 MIC in low salt containing media by Mueller-Hinton broth based assay; format: functional, organism-based
Acinetobacter baumannii [18] = assay: Potentiation of rifampicin-induced antibacterial activity against Acinetobacter baumannii 92247 assessed as rifampicin MIC at 16 microg/ml in high concentration of Ca++ and Mg++ containing media by Mueller-Hinton broth based assay; format: functional; conditions: dose 16 µg/ml
Acinetobacter baumannii [19] = assay: Potentiation of rifampicin-induced antibacterial activity against Acinetobacter baumannii ATCC 17978 assessed as fold change in rifampicin MIC at 16 microg/ml in high concentration of Ca++ and Mg++ containing media by Mueller-Hinton broth based assay; format: functional; conditions: dose 16 µg/ml
Escherichia coli [20] = assay: Potentiation of rifampicin-induced antibacterial activity against Escherichia coli clinical isolate 94474 at 1/4 MIC in low salt containing media by Mueller-Hinton broth based assay; format: functional, organism-based
Acinetobacter baumannii [21] = assay: Antibacterial activity against Acinetobacter baumannii ATCC 17978 in low salt containing media by Mueller-Hinton broth based assay; format: functional
[22] = Cytotoxicity against HEK293 cells assessed as cell viability at 9 uM relative to control; format: toxicity, cell-based; conditions: human, read-out: Activity
Acinetobacter baumannii [23] = assay: Potentiation of rifampicin-induced antibacterial activity against Acinetobacter baumannii 92247 assessed as fold change in rifampicin MIC at 2 to 8 microg/ml in high concentration of Ca++ and Mg++ containing media by Mueller-Hinton broth based assay; format: functional; conditions: dose 2-8 µg/ml
Acinetobacter baumannii [24] = assay: Potentiation of rifampicin-induced antibacterial activity against Acinetobacter baumannii 92247 assessed as fold change in rifampicin MIC at 16 microg/ml in high concentration of Ca++ and Mg++ containing media by Mueller-Hinton broth based assay; format: functional; conditions: dose 16 µg/ml
Acinetobacter baumannii [25] = assay: Potentiation of rifampicin-induced antibacterial activity against multidrug resistant Acinetobacter baumannii LAC-4 in low salt containing media by Mueller-Hinton broth based assay; format: functional, organism-based
Escherichia coli [26] = assay: Potentiation of rifampicin-induced antibacterial activity against Escherichia coli ATCC 25922 assessed as rifampicin MIC at 16 microg/ml in high concentration of Ca++ and Mg++ containing media by Mueller-Hinton broth based assay; format: functional; conditions: dose 16 µg/ml
Acinetobacter baumannii [27] = assay: Antibacterial activity against Acinetobacter baumannii 92247 in high concentration of Ca++ and Mg++ containing media by Mueller-Hinton broth based assay; format: functional
Pseudomonas aeruginosa [28] = assay: Antibacterial activity against Pseudomonas aeruginosa PAO1 in low salt containing media by Mueller-Hinton broth based assay; format: functional
Acinetobacter baumannii [29] = assay: Potentiation of rifampicin-induced antibacterial activity against Acinetobacter baumannii ATCC 17978 assessed as fold change in rifampicin MIC at 2 to 8 microg/ml in high concentration of Ca++ and Mg++ containing media by Mueller-Hinton broth based assay; format: functional; conditions: dose 2-8 µg/ml
Acinetobacter baumannii [30] = assay: Antibacterial activity against Acinetobacter baumannii ATCC 17978 in high concentration of Ca++ and Mg++ containing media by Mueller-Hinton broth based assay; format: functional
Escherichia coli [31] = assay: Potentiation of rifampicin-induced antibacterial activity against Escherichia coli […] assessed as rifampicin MIC at 16 microg/ml in high concentration of Ca++ and Mg++ containing media by Mueller-Hinton broth based assay; format: functional; conditions: dose 16 µg/ml
Pseudomonas aeruginosa [32] = assay: Potentiation of rifampicin-induced antibacterial activity against Pseudomonas aeruginosa PAO1 assessed as fold change in rifampicin MIC in low salt containing media by Mueller-Hinton broth based assay; format: functional
Acinetobacter baumannii [33] = assay: Potentiation of rifampicin-induced antibacterial activity against Acinetobacter baumannii ATCC 17978 assessed as rifampicin MIC at 16 microg/ml in high concentration of Ca++ and Mg++ containing media by Mueller-Hinton broth based assay; format: functional; conditions: dose 16 µg/ml
Acinetobacter baumannii [34] = assay: Potentiation of rifampicin-induced antibacterial activity against Acinetobacter baumannii ATCC 17978 assessed as rifampicin MIC at 2 to 8 microg/ml in high concentration of Ca++ and Mg++ containing media by Mueller-Hinton broth based assay; format: functional; conditions: dose 2-8 µg/ml
Escherichia coli [35] = assay: Potentiation of rifampicin-induced antibacterial activity against Escherichia coli ATCC 25922 assessed as fold change in rifampicin MIC at 2 to 8 microg/ml in high concentration of Ca++ and Mg++ containing media by Mueller-Hinton broth based assay; format: functional; conditions: dose 2-8 µg/ml
Acinetobacter baumannii [36] = assay: Potentiation of rifampicin-induced antibacterial activity against multidrug resistant Acinetobacter baumannii AB027 at 1/4 MIC in low salt containing media by Mueller-Hinton broth based assay; format: functional, organism-based
Escherichia coli [37] = assay: Potentiation of rifampicin-induced antibacterial activity against Escherichia coli clinical isolate 94393 at 1/4 MIC in low salt containing media by Mueller-Hinton broth based assay; format: functional, organism-based
Escherichia coli [38] = assay: Potentiation of rifampicin-induced antibacterial activity against Escherichia coli […] assessed as fold change in rifampicin MIC at 16 microg/ml in high concentration of Ca++ and Mg++ containing media by Mueller-Hinton broth based assay; format: functional; conditions: dose 16 µg/ml
Escherichia coli [39] = assay: Potentiation of rifampicin-induced antibacterial activity against Escherichia coli […] assessed as rifampicin MIC at 2 to 8 microg/ml in high concentration of Ca++ and Mg++ containing media by Mueller-Hinton broth based assay; format: functional; conditions: dose 2-8 µg/ml

NC[C@H]1O[C@@H](OCCC23CC4CC(CC(C4)C2)C3)[C@H](N)[C@@H](OCc2ccc3ccccc3c2)[C@H]1N
fold change (FC) (Escherichia coli [1]): 1 | MIC (Escherichia coli [2]): > 128 µg/mL | Activity (Escherichia coli [3]): inactive | Activity (Acinetobacter baumannii [4]): inactive | MIC (Escherichia coli [5]): 2 µg/mL | viability at 9 µM [6]: 76% | MIC (Acinetobacter baumannii [7]): 4 µg/mL | Activity (Acinetobacter baumannii [8]): inactive | MIC (Acinetobacter baumannii [9]): 2 µg/mL | fold change (FC) (Escherichia coli [10]): 2 | MIC (Escherichia coli [11]): 8 µg/mL | fold change (FC) (Acinetobacter baumannii [12]): >=256 | fold change (FC) (Escherichia coli [13]): 16 | MIC (Pseudomonas aeruginosa [14]): 8 µg/mL | MIC (Escherichia coli [15]): 2 µg/mL | MIC (Escherichia coli [16]): > 128 µg/mL | Activity (Acinetobacter baumannii [17]): inactive | MIC (Acinetobacter baumannii [18]): 16 µg/mL | fold change (FC) (Acinetobacter baumannii [19]): 2 | Activity (Escherichia coli [20]): inactive | MIC (Acinetobacter baumannii [21]): 16 µg/mL | viability at 9 µM [22]: 46.7% | fold change (FC) (Acinetobacter baumannii [23]): 2 | fold change (FC) (Acinetobacter baumannii [24]): 64 | Activity (Acinetobacter baumannii [25]): inactive | MIC (Escherichia coli [26]): 16 µg/mL | MIC (Acinetobacter baumannii [27]): > 128 µg/mL | MIC (Pseudomonas aeruginosa [28]): 32 µg/mL | fold change (FC) (Acinetobacter baumannii [29]): 1 | MIC (Acinetobacter baumannii [30]): > 128 µg/mL | MIC (Escherichia coli [31]): 16 µg/mL | fold change (FC) (Pseudomonas aeruginosa [32]): 2 | MIC (Acinetobacter baumannii [33]): 16 µg/mL | MIC (Acinetobacter baumannii [34]): 4 µg/mL | fold change (FC) (Escherichia coli [35]): 1 | Activity (Acinetobacter baumannii [36]): inactive | Activity (Escherichia coli [37]): Active | fold change (FC) (Escherichia coli [38]): 8 | MIC (Escherichia coli [39]): 4 µg/mL
